In patent EP0556720B1, “5-Aminoflavone derivatives” (KYOWA HAKKO KOGYO CO., LTD., priority 1992, dated 1993):
Values after ≈ are worked out from the molar mass of the structure shown.

Experiments:
[1] = test system: estrogen dependent human mammary cancer MCF-7; test: Antitumor effects against estrogen dependent human mammary cancer MCF-7 transplanted subcutaneously in nude mice; assay type: in vivo, female BALB/C-nu/nu mice; conditions: orally, five days per week for four weeks, ratio of V/V0 of treated group to control group
Description: Antitumor effects against estrogen dependent human mammary cancer MCF-7
Tumor strips (2mm x 2 mm x 2mm) of human hormone dependent mammary cancer MCF-7 were transplanted subcutaneously in the ventral part of female BALB/C-nu/nu mice (Nihon Crea), 7-9 weeks age. For promoting the growth of tumor, 12.5 µg of estradiol was intramuscularlly administered three times in the femoral region on the date of transplantation and 7 and 14 days after transplantation. 7 Days after transplantation, mice the tumor volume of which increased to 10-100 mm^3 were selected, and test compounds were orally administered repeatedly for five days per a week, for four weeks, at five animals per group. Length and breadth of the tumor were determined, and the tumor volumes were calculated by means of ellipsoid approximation according to the following equation: (Tumor volume […]= {Length (mm) x [Breadth (mm)])^2 }/2 [formula]
The tumor volume (V0) at initial administration was determined. The tumor volume (V) was determined after initiation to calculate V/V0 from which the ratio (T/C), that is, the ratio of V/V0 value of treated group relative to that of control group was obtained.

HeLaS3 cells = test: Human uterine cervix carcinoma (HeLaS3) growth inhibition test, neutral red staining; assay type: cell-based; conditions: HeLa S3, 72 hours culture with sample, absorbance at 550 nm
Description: Human uterine cervix carcinoma (HeLaS3) growth inhibition test;
Each 0.1 ml of HeLaS3 cells which had been prepared to 3 x 10^4/ml using a medium (referred to as Medium A hereinafter) consisted of MEM medium, 2 mM glutamine and 10% bovine fetal serum was distributed in each well of 96 well-microtiter plate. The plate was cultured at 37 °C for 20 hours in a CO2 gas incubator, each 0.05 ml of samples (test compounds) which had been appropriately diluted with Medium A was added thereto and the mixture was cultured at 37 °C for 72 hours in a CO2 gas incubator. Supernatant was removed, each 0.1 ml of Medium A containing 0.02% neutral red was added to the residue, the mixture was cultured at 37 °C for 1 hour in a CO2 gas incubator and the cells were stained. Supernatant was removed and the residue was washed once with saline. Then, the pigment was extracted with 0.001N hydrochloric acid/30% ethanol and the absorbance at 550 nm was measured with a microplatereader.

Bacillus subtilis #10107 = test: Antibacterial activity, minimum inhibition concentration by agar dilution method; assay type: cell-based; conditions: agar dilution method at pH 7.0
Description: Antibacterial activity of the compound (I) against Bacillus subtilis #10107 [Minimum Inhibition Concentration (MIC; µg/ml)] is shown in Table 2. Minimum Inhibition Concentration was determined by agar dilution method at pH 7.0.

MCF-7 cells = test: Human mammary cancer (MCF-7) growth inhibition test, neutral red staining; assay type: cell-based; conditions: MCF7, medium with 10^-8M estradiol, 72 hours culture with sample
Description: Human mammary cancer (MCF-7) growth inhibition test;
Each 0.1 ml of MCF-7 cells which had been prepared to 5 x 10^4/ml using a medium (referred to as Medium B hereinafter) prepared by adding 10% bovine fetal serum, 10^-8M estradiol (manufactured by Sigma), 100 units/ml penicillin and 100 µg/ml streptomycin to medium RPMI1640 was distributed in each well of 96 well-microtiter plate. The plate was cultured at 37 °C for 20 hours in a CO2 gas incubator, each 0.05 ml of samples (test compounds) which had been appropriately diluted with Medium B was added thereto and the mixture was cultured at 37 °C for 72 hours in a CO2 gas incubator. Supernatant was removed, each 0.1 ml of Medium B containing 0.02% neutral red was added to the residue, the mixture was cultured at 37 °C for 1 hour in a CO2 gas incubator and the cells were stained. IC50 was calculated according to the same manner as that in Test 2.

| Structure (SMILES) | T/C ([1]; Dose 6.3 mg/kg, Date 22) | IC50 (HeLaS3 cells) [µM] | MIC (Bacillus subtilis #10107) [µg/mL] | T/C ([1]; Dose 25 mg/kg, Date 29) | IC50 (MCF-7 cells) [µM] |
| --- | --- | --- | --- | --- | --- |
| Nc1ccc(-c2cc(=O)c3c(N)c(F)cc(F)c3o2)cc1 [Compound 12, 5-Amino-2-(4-aminophenyl)-6,8-difluoro-4H-1-benzopyran-4-one] | 0.45 | 10 | – | – | – |
| NCCCNc1ccc(-c2cc(=O)c3c(N)c(F)ccc3o2)cc1 [Compound 16, 5-Amino-2-[4-[(3-aminopropyl)amino]phenyl]-6-fluoro-4H-1-benzopyran-4-one] | – | 5.8 | 5.2 (≈ 15.9 µM) | – | – |
| NCCCNc1ccc(-c2cc(=O)c3c(N)c(F)cc(F)c3o2)cc1 [Compound 24, 5-Amino-2-[4-[(3-aminopropyl)amino]phenyl]-6,8-difluoro-4H-1-benzopyran-4-one] | – | 3.4 | 2.6 (≈ 7.53 µM) | – | – |
| Nc1ccc(-c2cc(=O)c3c(N)c(F)cc(F)c3o2)cc1F [Compound 26, 5-Amino-2-(4-amino-3-fluorophenyl)-6,8-difluoro-4H-1-benzopyran-4-one] | – | 26 | – | 0.45 | – |
| CCCCCCNc1c(F)cc(F)c2oc(-c3ccc(NCC(=O)OCC)c(F)c3)cc(=O)c12 [Compound 74, 6,8-Difluoro-2-(4-ethoxycarbonylmethylamino-3-fluorophenyl)-5-hexylamino-4H-1-benzopyran-4-one] | – | 12 | – | – | 9.2 |
